Reference: BindingDB's records for doi:10.1021/jm300576q (Georgetown University Medical Center, 2012)

Test: Inhibition of VEGFR2-mediated angiogenesis in human HUVEC cells after 24 hrs by inverted photomicroscopic analysis

## COC(=O)Nc1nc2ccc(C(=O)c3ccccc3)cc2[nH]1 [methyl (5-benzoyl-1H-benzimidazol-2-yl)carbamate]
  IC50: 8.8 µM
